Laboratory results: US10800741B2 (ANCUREALL PHARMACEUTICAL (SHANGHAI) CO., LTD., priority 2017, dated 2020)
Read-outs that look alike come from different tables or passages of the source.

Tests used:
Assay type in all cases: cell-based, Human
Karpas 299 (NPM-ALK) = assay: In vitro growth inhibition of Karpas 299 tumor cells (MTT/CCK8); conditions: Homo sapiens
Source text: (§1) Tumor cell lines are an effective model for studying in vitro tumor growth inhibition. In the present invention, a representative tumor cell line was selected to determine the cell growth inhibition activity of the present compound. All cell lines used were from ATCC, DSMZ, and cell banks of the Chinese Academy of Sciences. Cell culture conditions and methods were in accordance with the requirements of each cell line. Cells were subcultured in vitro for no more than 3 generations each time, and as required, single-clone purification and identification of cell lines could be carried out.
(§2) The cell culture media used were RPMI1640 (Gibco), DMEM (Gibco), MEM (Gibco), L15 (Gibco), IMDM (Gibco), McCOY'S5A, and William's (Gibco). 5-20% fetal bovine serum (Gibco), 1% double antibiotic, 2 mM glutamine, or 1 mM sodium pyruvate were added. The names, species, major gene characteristics, culture media and cell sources of the cell lines used are shown in table 1, wherein “amp” refers to gene amplification. “+++” refers to gene overexpression. The main genetic characteristics of cells were obtained from the COSMIC Cell Lines Project and related research papers, respectively.
(§3) Adherent cells were digested with 0.25% trypsin-EDTA (Gibco). Suspension culture cells were collected by centrifugation (1700 rpm, 3 minutes). The supernatant was discarded and the cells were counted. According to each cell growth cycle, different concentrations of cells were prepared (5˜10×10^4 cells per ml), and inoculated to 96-well plates (Corning), with 100 μl per well, and incubated overnight at 37° C., 5% CO2. The next day, the test compound was added to the cultured cells (2 wells in parallel). The final concentration of the solvent was less than 1/1,000. The cells were further cultured for 3 to 5 days and assayed by MTT.
(§4) The compound was stored at a concentration of 10 mM at −20° C. and diluted to 2- or 10-fold series prior to use. BGJ398 and AC220 were synthesized according to the methods of WO2006420A1 and US2007232604A1, respectively.
(§5) The adherent cells were taken out from the cell culture medium, and immediately added to a freshly prepared complete medium containing 10% CCK8 (5% FBS), 100 ul per hole. The suspended cells were directly added to a CCK8 reagent until reaching a final concentration of 10% and cultured for 1 to 4 hours.
(§6) T=optical density of drug-treated cell wells−optical density of blank control wells; T0=optical density of cell wells before drug treatment−optical density of blank control wells; C=optical density of solvent control wells−optical density of blank control wells. […] The experiments were repeated 1 to 3 times and a statistical analysis of data was conducted.

Kasumi-1 (KIT N822K) = assay: In vitro growth inhibition of Kasumi-1 tumor cells (MTT/CCK8); conditions: Homo sapiens, Kasumi 1; in vitro growth inhibition (or induction of apoptosis), cells cultured 3 to 5 days, MTT (CCK8); read-out: IC50 Kasumi-1 (KIT N822K)
Source text: as §1, §2, §3, §4, §5, §6

Hep3B2 (FGFR3/4+++) = assay: In vitro growth inhibition of Hep3B2 tumor cells (MTT/CCK8); conditions: Homo sapiens, Hep3B; in vitro growth inhibition (or induction of apoptosis), cells cultured 3 to 5 days, MTT (CCK8); read-out: IC50 Hep3B2 (FGFR3/4+++)
Source text: as §1, §2, §3, §4, §5, §6

KCL-22 (BCR-ABL) = assay: In vitro growth inhibition of KCL-22 tumor cells (MTT/CCK8); conditions: Homo sapiens, KCL-22; in vitro growth inhibition (or induction of apoptosis), cells cultured 3 to 5 days, MTT (CCK8); read-out: IC50 KCL-22 (BCR-ABL)
Source text: as §1, §2, §3, §4, §5, §6

MOLM-13 (FLT3-ITD) = assay: In vitro growth inhibition of MOLM-13 tumor cells (MTT/CCK8); conditions: Homo sapiens
Source text: as §1, §2, §3, §4, §5, §6

H1581 (FGFR1 amp) = assay: In vitro growth inhibition of H1581 tumor cells (MTT/CCK8); conditions: Homo sapiens, NCI-H1581; in vitro growth inhibition (or induction of apoptosis), cells cultured 3 to 5 days, MTT (CCK8); read-out: IC50 H1581 (FGFR1 amp)
Source text: as §1, §2, §3, §4, §5, §6

H1703 (PDGFRa amp) = assay: In vitro growth inhibition of H1703 tumor cells (MTT/CCK8); conditions: Homo sapiens, NCI-H1703; in vitro growth inhibition (or induction of apoptosis), cells cultured 3 to 5 days, MTT (CCK8); read-out: IC50 H1703 (PDGFRa amp)
Source text: as §1, §2, §3, §4, §5, §6

KATO III (FGFR2 amp) = assay: In vitro growth inhibition of KATO III tumor cells (MTT/CCK8); conditions: Homo sapiens, KATO III; in vitro growth inhibition (or induction of apoptosis), cells cultured 3 to 5 days, MTT (CCK8); read-out: IC50 KATO III (FGFR2 amp)
Source text: as §1, §2, §3, §4, §5, §6

[1] = KARPAS-299, in vitro growth inhibition (or induction of apoptosis), cells cultured 3 to 5 days, MTT (CCK8), read-out: IC50 Karpas 299 (NPM-ALK)
[2] = MOLM-13, in vitro growth inhibition (or induction of apoptosis), cells cultured 3 to 5 days, MTT (CCK8), read-out: IC50 MOLM-13 (FLT3-ITD)

| SMILES | IC50 (Karpas 299 (NPM-ALK); [1]) [nM] | IC50 (Kasumi-1 (KIT N822K)) [nM] | IC50 (Hep3B2 (FGFR3/4+++)) [nM] | IC50 (KCL-22 (BCR-ABL)) [nM] | IC50 (MOLM-13 (FLT3-ITD); [2]) [nM] | IC50 (H1581 (FGFR1 amp)) [nM] | IC50 (H1703 (PDGFRa amp)) [nM] | IC50 (KATO III (FGFR2 amp)) [nM] | IC50 (Karpas 299 (NPM-ALK); KARPAS-299, read-out: IC50 Karpas 299 (NPM-ALK)) [nM] | IC50 (MOLM-13 (FLT3-ITD); MOLM-13, read-out: IC50 MOLM-13 (FLT3-ITD)) [nM] |
| --- | --- | --- | --- | --- | --- | --- | --- | --- | --- | --- |
| COc1cc2nccc(Nc3ccc(NC(=O)Nc4cc(C(C)(C)C)n[nH]4)cc3C)c2cc1C(N)=O [Compound 98, 4-{4-[3-(5-tert-butyl-2H-pyrazol-3-yl)-ureido]-2-methyl-phenylamino}-7-methoxy-quinolin-6-carboxamide] | > 1000 | > 1000 | 843 | > 1000 | 6 | 433 | 605 | 270 |  |  |
| CC(C)(C)c1cc(NC(=O)Nc2ccc(-c3cn4c(n3)sc3cc(OCCC5CCOCC5)ccc34)cc2)no1 [AC220, reference compound] | > 1000 | > 1000 |  | > 1000 | 0.69 | > 1000 | > 1000 | > 1000 |  |  |
| COc1cc2nccc(Oc3ccc(NC(=O)Nc4cc(C(C)(C)C)n[nH]4)cn3)c2cc1C(N)=O [Compound 108, 4-{5-[3-(5-tert-butyl-2H-pyrazol-3-yl)-ureido]-pyridin-2-yloxy}-7-methoxy-quinolin-6-carboxamide] | > 1000 | > 1000 |  | > 1000 | 3.81 | 146 | 666 | 31.3 |  |  |
| CC(C)(C)c1cc(NC(=O)Nc2ccc(Oc3ccnc4cc(OCCCN5CCN(CC6CCCCC6)CC5)c(C(N)=O)cc34)cc2Cl)[nH]n1 [Compound 90] | 256 | 9.47 | 101 | 175 | 7.54 |  |  | 2.78 |  |  |
| CN1CCCN(CCCOc2cc3nccc(Oc4ccc(NC(=O)Nc5cc(C(C)(C)C)n[nH]5)c(Cl)c4)c3cc2C(N)=O)CC1 [Compound 88, 4-{4-[3-(5-tert-butyl-2H-pyrazol-3-yl)-ureido]-3-chloro-phenoxy}-7-[3-(4-methyl-[1,4]-1-yl)-propoxy]-quinolin-6-carboxamide] | 153 | 15.6 | 175 | 282 | 5.49 |  | 55.6 | 5.67 |  |  |
| CC(C)(C)c1cc(NC(=O)Nc2ccc(Oc3ccnc4cc(OCCCN5CCN(c6ccccc6)CC5)c(C(N)=O)cc34)cc2Cl)[nH]n1 [Compound 86, 4-{4-[3-(5-tert-butyl-2H-pyrazol-3-yl)-ureido]-3-chloro-phenoxy}-7-[3-(4-phenyl-piperazin-1-yl)-propoxy]-quinolin-6-carboxamide] | 600 | 76.3 | 85.1 |  |  | 326 | 370 | 68.3 |  |  |
| Cc1ccc(C(=O)Nc2ccc(CN3CCN(C)CC3)c(C(F)(F)F)c2)cc1C#Cc1cnc2cccnn12 [Ponatinib, reference compound] |  |  |  |  |  |  |  |  | 798 | < 1 |
| CC(C)(C)c1cc(NC(=O)Nc2ccc(Oc3ccnc4cc(OCCCN5CCOCC5)c(C(N)=O)cc34)cc2Cl)n(C2CCCC2)n1 [Compound 140, 4-{4-[3-(5-tert-butyl-2-cyclopentyl-2H-pyrazol-3-yl)-ureido]-3-chloro-phenoxy}-7-(3-morpholin-4-yl-propoxy)-quinolin-6-carboxamide] |  |  |  |  | 17.9 | 115 |  | 23.7 |  |  |

More lines, in order of falling IC50 (KATO III (FGFR2 amp)), values ahead:

| IC50 (Karpas 299 (NPM-ALK); [1]) [nM] | IC50 (Kasumi-1 (KIT N822K)) [nM] | IC50 (Hep3B2 (FGFR3/4+++)) [nM] | IC50 (KCL-22 (BCR-ABL)) [nM] | IC50 (MOLM-13 (FLT3-ITD); [2]) [nM] | IC50 (H1581 (FGFR1 amp)) [nM] | IC50 (H1703 (PDGFRa amp)) [nM] | IC50 (KATO III (FGFR2 amp)) [nM] | IC50 (Karpas 299 (NPM-ALK); KARPAS-299, read-out: IC50 Karpas 299 (NPM-ALK)) [nM] | IC50 (MOLM-13 (FLT3-ITD); MOLM-13, read-out: IC50 MOLM-13 (FLT3-ITD)) [nM] | SMILES |
| --- | --- | --- | --- | --- | --- | --- | --- | --- | --- | --- |
| 216 | 16.4 | 43.1 | 184 | 6.41 |  |  | 1.26 |  |  | CC(=O)N1CCN(CCCOc2cc3nccc(Oc4ccc(NC(=O)Nc5cc(C(C)(C)C)n[nH]5)c(Cl)c4)c3cc2C(N)=O)CC1 [Compound 91, 7-[3-(4-acetyl-piperazin-1-yl)-propoxy]-4-{4-[3-(5-tert-butyl-2H-pyrazol-3-yl)-ureido]-3-chloro-phenoxy}-quinolin-6-carboxamide] |
| 146 | 4.48 | 19.4 | 45 | 6.43 |  | 13.1 | 1.12 |  |  | CC(C)CN1CCN(CCCOc2cc3nccc(Oc4ccc(NC(=O)Nc5cc(C(C)(C)C)n[nH]5)c(Cl)c4)c3cc2C(N)=O)CC1 [Compound 89, 4-{4-[3-(5-tert-butyl-2H-pyrazol-3-yl)-ureido]-3-chloro-phenoxy}-7-[3-(4-isobutyl-piperazin-1-yl)-propoxy]-quinolin-6-carboxamide] |
| 144 | 4.19 | 57.2 | 55.1 | 3.65 |  | 12.5 | 1.02 |  |  | CC(C)(C)c1cc(NC(=O)Nc2ccc(Oc3ccnc4cc(OCCCN5CCN(C(C)(C)C)CC5)c(C(N)=O)cc34)cc2Cl)[nH]n1 [Compound 87, 7-[3-(4-tert-butyl-piperazin-1-yl)-propoxy]-4-{4-[3-(5-tert-butyl-2H-pyrazol-3-yl)-ureido]-3-chlorophenoxy}-quinolin-6-carboxamide] |
| 93 | 191 |  | 46.5 |  | 9.19 | 11.9 | 0.98 |  |  | COCCOc1cc2nccc(Oc3ccc(NC(=O)Nc4cc(C(C)(C)C)n[nH]4)c(Cl)c3)c2cc1C(N)=O [Compound 42, 4-{4-[3-(5-tert-butyl-2H-pyrazol-3-yl)-ureido]-3-chloro-phenoxy}-7-(2-methoxy-ethoxy)-quinolin-6-carboxamide] |
| 417 | 10.3 | 18.2 | 3.11 | 2.33 | 5.5 | 14.8 | 0.58 |  |  | CNC(=O)c1cc2c(Oc3ccc(NC(=O)Nc4cc(C(C)(C)C)n[nH]4)c(Cl)c3)ccnc2cc1OCCOC [Compound 58, 4-{4-[3-(5-tert-butyl-2H-pyrazol-3-yl)-ureido]-3-chloro-phenoxy}-7-(2-methoxy-ethoxy)-quinolin-6-carboxylic acid methylamide] |
| 100 | 0.406 | 15.8 | 2.69 |  | 3.02 | 17.3 | 0.23 |  |  | COc1cc2nccc(Oc3ccc(NC(=O)Nc4cc(C(C)(C)C)n[nH]4)c(Cl)c3C)c2cc1C(N)=O [Compound 112, 4-{4-[3-(5-tert-butyl-2H-pyrazol-3-yl)-ureido]-3-chloro-2-methyl-phenoxy}-7-methoxy-quinolin-6-carboxamide] |
| 55.7 | 0.375 | 8.41 | 1.07 |  | 2.98 | 4.75 | 0.1 |  |  | COc1cc2nccc(Oc3ccc(NC(=O)Nc4cc(C(C)(C)C)nn4C)c(Cl)c3C)c2cc1C(N)=O [Compound 111, 4-{4-[3-(5-tert-butyl-2-methyl-2H-pyrazol-3-yl)-ureido]-3-chloro-2-methyl-phenoxy}-7-methoxy-carboxamide] |
